The subject of one assay is descriptive panel (N=8). Put plainly: Consumer-Descriptive Analysis panel study of compressed mints. The class given is in vivo, human. The protocol: All samples were prepared in a pilot plant under good manufacture practice conditions. Samples made for consumer descriptive analysis passed a metal detector test. One sample of each mint formulation was further evaluated in both Expert Sensory Analysis (ESA) and Descriptive Analysis tests. A Consumer-Descriptive Analysis panel study was conducted. Four mints containing various level of cooling blend were formulated at a pilot plant. During the test, each member of the descriptive panel (N=8) sucked one piece of mint until it completely dissolved. During the mint consumption, panelists evaluated various cooling attributes including oral cool and nasal cool at several specified time points. Flavor and sweetener intensity, bitterness, and off-taste were also evaluated. Panelists continued the evaluation even after mint consumption was complete, for a total of 20 minutes from the beginning of the test.

A further assay concerns Subjects. In words: ESA panel evaluation of compressed mints (cooling strength, flavor strength, bitterness/off-taste). The class given is in vivo, human. The conditions noted are these: for upfront cooling intensity: first 3 minutes, 9-point scale, WS-5 500 ppm. The protocol: All samples were prepared in a pilot plant under good manufacture practice conditions. Samples made for consumer descriptive analysis passed a metal detector test. One sample of each mint formulation was further evaluated in both Expert Sensory Analysis (ESA) and Descriptive Analysis tests.
Compressed mint samples were evaluated for cooling strength, flavor strength and bitterness, or off-taste in a randomized sampling order by a 9-point scale: 0 being the lowest and 9 being the highest. Subjects were allowed to suck the compressed mint (without biting or chewing) until completely dissolved. The coolant attributes were measured at different time points up to 15 minutes.
The level of WS-12 was increased to levels from 250 to 1000 ppm (0.025%-0.1% w/w) and additional ESA evaluations were conducted.

Setting [1] is: compressed mint, WS-12 1000 ppm, WS-5 and WS-12 250 ppm of each.

As for `CCOC(=O)CNC(=O)C1CC(C)CCC1C(C)C` (stereo not drawn) [WS-5, N-(Ethoxycarbonylmethyl)-3-p-menthanecarboxamide], the “oral cooling sustained after consumption” value in the assay with descriptive panel (N=8) (compressed mint, WS-5) is “up to 10 minutes”. For the same compound, the oral cooling result in the assay with descriptive panel (N=8) (during the 15 minutes, vs control, WS-5 500 ppm, WS-5/WS-12 250/250 ppm) is recorded as “higher oral cooling”. Besides, the upfront cooling intensity result in the assay with Subjects (setting [1]) is on record as “strong cooling intensity upfront”.

Take `COc1ccc(NC(=O)[C@@H]2C[C@H](C)CC[C@H]2C(C)C)cc1` [WS-12, (1R,2S,5R)-N-(4-Methoxyphenyl)-5-methyl-2-(1-methylethyl)cyclohexanecarboxamide]: the cooling duration with Subjects (compressed mint, WS-12 1000 ppm, measured up to 15 minutes) is given as > 15 min. For the same compound, the upfront cooling intensity entry in the assay on Subjects (setting [1]) is given as “very low upfront cooling”. For the same compound, in the assay on Subjects (compressed mint, compared to mint comprising WS-23 (1000 ppm), WS-12 1000 ppm, WS-5 and WS-12 250 ppm of each), the “cooling after 6 min” value is reported as “significant more cooling”. Also, the “cooling intensity, flavor intensity or duration of cooling versus the control mints” value in the assay with Subjects (compressed mints, low level of WS-12 (25-100 ppm)) is reported as “No significant difference”.

Take `CNC(=O)C(C)(C(C)C)C(C)C` [WS-23, N,2,3-Trimethyl-2-isopropylbutamide, reference compound]: the oral cooling entry with descriptive panel (N=8) (after the first 4 minutes, WS-23 0.1%) was “lost cooling strength and became similar to the control”; in the assay on descriptive panel (N=8) (first 4 minutes, WS-23 0.1%), “superior oral cooling”.

Source of the values: US20180184680A1, “LONG-LASTING COOLING FORMULATIONS” (WM. WRIGLEY JR. COMPANY, priority 2015, published 2018).
